Patent US3985740A, “7-[D-(α-amino-α-phenyl-, 2-thienyl- and 3-thienylacetamido)]-3-(5-methylthiazol-2-yl)carbonylthiomethyl-3-cephem -4-carboxylic acids” (Bristol-Myers Company, priority 1974, dated 1976)
≈ marks a conversion by molar mass, not a printed value. Read-outs that look alike come from different tables or passages of the source.

Legend:
D. pneumoniae A9585 = assay: M.I.C. by tube dilution; assay type: cell-based; details: Streptococcus pneumoniae, D. pneumoniae + 5% serum, 50% Nutrient Broth - 45% Antibiotic Assay Broth, overnight 37° C.
Pr. morganii A15153 = assay: M.I.C. by tube dilution; assay type: cell-based; details: Morganella morganii
S. aureus A9748 = assay: M.I.C. by tube dilution; assay type: cell-based; details: overnight 37° C.; for MIC: Staphylococcus aureus
E. coli A9675 = assay: M.I.C. by tube dilution; assay type: cell-based; details: at 10^-^4 dilution, overnight 37° C.; for MIC: Escherichia coli, A9675
[1] = system: S. aureus BX 1633-2 A9606; assay: M.I.C. by tube dilution; assay type: cell-based; details: overnight 37° C.; for MIC: Staphylococcus aureus
[2] = system: S. aureus methicillin-resistant A15097; assay: M.I.C. by tube dilution; assay type: cell-based; details: at 10^-^3 dilution, overnight 37° C.; for MIC: Staphylococcus aureus
K. pneumoniae A9977 = assay: M.I.C. by tube dilution; assay type: cell-based; details: at 10^-^4 dilution, overnight 37° C.; for MIC: Klebsiella pneumoniae, A9977
Str. pyogenes A9604 = assay: M.I.C. by tube dilution; assay type: cell-based; details: Streptococcus pyogenes, Str. pyogenes + 5% serum, 50% Nutrient Broth - 45% Antibiotic Assay Broth, overnight 37° C.
Pr. mirabilis A9900 = assay: M.I.C. by tube dilution; assay type: cell-based; details: at 10^-^4 dilution, overnight 37° C.; for MIC: Proteus mirabilis, A9900
Ser. marcescens A20019 = assay: M.I.C. by tube dilution; assay type: cell-based; details: Serratia marcescens
S. aureus Smith A9537 = assay: M.I.C. by tube dilution; assay type: cell-based; details: Staphylococcus aureus, overnight 37° C.
Sal. enteritidis A9531 = assay: M.I.C. by tube dilution; assay type: cell-based; details: at 10^-^4 dilution, overnight 37° C.; for MIC: Salmonella enterica, ENTERITIDIS
E. coli Juhl A15119 = assay: M.I.C. by tube dilution; assay type: cell-based; details: Escherichia coli, JUHLA15119
K. pneumoniae A15130 = assay: M.I.C. by tube dilution; assay type: cell-based; details: at 10^-^4 dilution, overnight 37° C.; for MIC: Klebsiella pneumoniae, A15130
Ps. aeruginosa A9843A = assay: M.I.C. by tube dilution; assay type: cell-based; details: Pseudomonas aeruginosa
[3] = Blood levels in the mouse after oral administration; assay type: in vivo; details: mouse, oral, 100 mgm./kg.; for concentration at 0.5 h / concentration at 1 h / concentration at 2 h / concentration at 3.5 h: blood, 100 mg/kg, read-out: Blood Level; for concentration at 1 h: 1 hr. after administration; for concentration at 2 h: 2 hrs. after administration; for concentration at 3.5 h: 3.5 hrs. after administration
Protocol: Blood levels in the mouse after oral administration were
determined with the following results:

[4] = at 10^-^4 dilution, overnight 37° C., read-out: M.I.C.
[5] = A9748, at 10^-^2 dilution, read-out: M.I.C.
[6] = A9748, at 10^-^3 dilution, read-out: M.I.C.
[7] = BX16332A9606, at 10^-^2 dilution, read-out: M.I.C.
[8] = BX16332A9606, at 10^-^3 dilution, read-out: M.I.C.
[9] = SMITHA9537, + 50% serum, at 10^-^4 dilution, read-out: M.I.C.
[10] = SMITHA9537, at 10^-^4 dilution, read-out: M.I.C.

N[C@@H](C(=O)NC1C(=O)N2C(C(=O)O)=C(CSC(=O)c3cscn3)CS[C@H]12)c1ccccc1 (stereo partly drawn) [Compound 591, 7-[D-(-)α-aminophenylacetamido]-3-(thiazol-4-yl)carbonylthiomethyl-3-cephem-4-carboxylic acid]
MIC (D. pneumoniae A9585): 0.02 µg/mL | MIC (Pr. morganii A15153; [4]): 32 µg/mL (≈ 65.2 µM) | MIC (S. aureus A9748; [5]): 16 µg/mL (≈ 32.6 µM) | MIC (S. aureus A9748; [6]): 4 µg/mL (≈ 8.15 µM) | MIC (E. coli A9675; read-out: M.I.C.): 4 µg/mL (≈ 8.15 µM) | MIC [1, 7]: 2 µg/mL (≈ 4.08 µM) | MIC [1, 8]: 0.6 µg/mL (≈ 1.22 µM) | MIC [2]: 2 µg/mL (≈ 4.08 µM) | MIC (K. pneumoniae A9977; read-out: M.I.C.): 1 µg/mL (≈ 2.04 µM) | MIC (Str. pyogenes A9604): 0.02 µg/mL | MIC (Pr. mirabilis A9900; read-out: M.I.C.): 1 µg/mL (≈ 2.04 µM) | MIC (Ser. marcescens A20019): 125 µg/mL (≈ 255 µM) | MIC (S. aureus Smith A9537; [9]): 8 µg/mL | MIC (S. aureus Smith A9537; [10]): 0.3 µg/mL (≈ 0.612 µM) | MIC (Sal. enteritidis A9531; read-out: M.I.C.): 0.16 µg/mL (≈ 0.326 µM) | MIC (E. coli Juhl A15119; [4]): 1 µg/mL (≈ 2.04 µM) | MIC (K. pneumoniae A15130; read-out: M.I.C.): 8 µg/mL (≈ 16.3 µM) | MIC (Ps. aeruginosa A9843A): > 125 µg/mL | concentration at 0.5 h ([3]; 0.5 hrs. after administration): 6500 ng/mL | concentration at 1 h [3]: 7900 ng/mL | concentration at 2 h [3]: 4400 ng/mL | concentration at 3.5 h [3]: 3200 ng/mL

Cc1nc(C(=O)SCC2=C(C(=O)O)N3C(=O)C(NC(=O)[C@H](N)c4ccccc4)[C@H]3SC2)cs1 (stereo partly drawn) [Compound 607, 7-[D-α-aminophenylacetamido]-3-(2-methylthiazol-4-yl)carbonylthiomethyl-3-cephem-4-carboxylic acid]
MIC (D. pneumoniae A9585): 0.16 µg/mL | MIC (Pr. morganii A15153; [4]): 32 µg/mL (≈ 63.4 µM) | MIC (S. aureus A9748; [5]): 16 µg/mL (≈ 31.7 µM) | MIC (S. aureus A9748; [6]): 8 µg/mL (≈ 15.9 µM) | MIC (E. coli A9675; read-out: M.I.C.): 16 µg/mL (≈ 31.7 µM) | MIC [1, 7]: 4 µg/mL (≈ 7.93 µM) | MIC [1, 8]: 0.6 µg/mL (≈ 1.19 µM) | MIC [2]: 8 µg/mL (≈ 15.9 µM) | MIC (K. pneumoniae A9977; read-out: M.I.C.): 16 µg/mL (≈ 31.7 µM) | MIC (Str. pyogenes A9604): 0.16 µg/mL | MIC (Pr. mirabilis A9900; read-out: M.I.C.): 8 µg/mL (≈ 15.9 µM) | MIC (Ser. marcescens A20019): > 125 µg/mL | MIC (S. aureus Smith A9537; [9]): 63 µg/mL | MIC (S. aureus Smith A9537; [10]): 0.3 µg/mL (≈ 0.595 µM) | MIC (Sal. enteritidis A9531; read-out: M.I.C.): 0.6 µg/mL (≈ 1.19 µM) | MIC (E. coli Juhl A15119; [4]): 8 µg/mL (≈ 15.9 µM) | MIC (K. pneumoniae A15130): 125 µg/mL (≈ 248 µM) | MIC (Ps. aeruginosa A9843A): > 125 µg/mL | concentration at 0.5 h ([3]; 0.5 hrs. after administration): 1200 ng/mL | concentration at 1 h [3]: 1400 ng/mL | concentration at 2 h [3]: 1300 ng/mL | concentration at 3.5 h [3]: 1000 ng/mL | Blood Level ([3]; 0.5 hrs. after administration): 1200 ng/mL

N[C@@H](C(=O)NC1C(=O)N2C(C(=O)O)=C(CSC(=O)c3cncs3)CS[C@H]12)c1ccccc1 (stereo partly drawn) [Compound 602, 7-[D-(-)-α-aminophenylacetamido]-3-(thiazol-5-yl)carbonylthiomethyl-3-cephem-4-carboxylic acid]
MIC (D. pneumoniae A9585): 0.6 µg/mL | MIC (Pr. morganii A15153): 125 µg/mL (≈ 255 µM) | MIC (S. aureus A9748; [5]): 63 µg/mL (≈ 128 µM) | MIC (S. aureus A9748; [6]): 8 µg/mL (≈ 16.3 µM) | MIC (E. coli A9675; read-out: M.I.C.): 16 µg/mL (≈ 32.6 µM) | MIC [1, 7]: 16 µg/mL (≈ 32.6 µM) | MIC [1, 8]: 1.3 µg/mL (≈ 2.65 µM) | MIC [2]: 4 µg/mL (≈ 8.15 µM) | MIC (K. pneumoniae A9977; read-out: M.I.C.): 16 µg/mL (≈ 32.6 µM) | MIC (Str. pyogenes A9604): 0.6 µg/mL | MIC (Pr. mirabilis A9900; read-out: M.I.C.): 16 µg/mL (≈ 32.6 µM) | MIC (Ser. marcescens A20019): > 125 µg/mL | MIC (S. aureus Smith A9537; [9]): > 63 µg/mL | MIC (S. aureus Smith A9537; [10]): 0.3 µg/mL (≈ 0.612 µM) | MIC (Sal. enteritidis A9531; read-out: M.I.C.): 0.3 µg/mL (≈ 0.612 µM) | MIC (E. coli Juhl A15119; [4]): 4 µg/mL (≈ 8.15 µM) | MIC (K. pneumoniae A15130; read-out: M.I.C.): 32 µg/mL (≈ 65.2 µM) | MIC (Ps. aeruginosa A9843A): > 125 µg/mL | concentration at 0.5 h ([3]; 0.5 hrs. after administration): 11700 ng/mL | concentration at 1 h [3]: 17600 ng/mL | concentration at 2 h [3]: 9700 ng/mL | concentration at 3.5 h [3]: 3300 ng/mL

CC1=C(C(=O)O)N2C(=O)[C@@H](NC(=O)[C@H](N)c3ccccc3)[C@H]2SC1 [cephalexin, reference compound]
MIC (Pr. morganii A15153): > 125 µg/mL | MIC (S. aureus A9748; A9748, at 10^-^2 dilution): 125 µg/mL (≈ 360 µM) | MIC (S. aureus A9748; A9748, at 10^-^3 dilution): 32 µg/mL (≈ 92.1 µM) | M.I.C. (S. aureus A9748; at 10^-^2 dilution): 63 µg/mL | M.I.C. (S. aureus A9748; at 10^-^3 dilution): 63 µg/mL | MIC (E. coli A9675): 16 µg/mL (≈ 46.1 µM) | M.I.C. (E. coli A9675): 32 µg/mL | MIC ([1]; BX16332A9606, at 10^-^2 dilution): 8 µg/mL (≈ 23 µM) | MIC ([1]; BX16332A9606, at 10^-^3 dilution): 4 µg/mL (≈ 11.5 µM) | M.I.C. ([1]; at 10^-^2 dilution): 4 µg/mL | M.I.C. ([1]; at 10^-^3 dilution): 2 µg/mL | MIC [2]: 32 µg/mL (≈ 92.1 µM) | M.I.C. [2]: 63 µg/mL | MIC (K. pneumoniae A9977): 8 µg/mL (≈ 23 µM) | M.I.C. (K. pneumoniae A9977): 4 µg/mL | MIC (Pr. mirabilis A9900): 4 µg/mL (≈ 11.5 µM) | M.I.C. (Pr. mirabilis A9900): 8 µg/mL | MIC (Ser. marcescens A20019): > 125 µg/mL | MIC (S. aureus Smith A9537; SMITHA9537, + 50% serum, at 10^-^4 dilution): 2.5 µg/mL | MIC (Sal. enteritidis A9531): 4 µg/mL (≈ 11.5 µM) | M.I.C. (Sal. enteritidis A9531): 2 µg/mL | MIC (E. coli Juhl A15119): 8 µg/mL (≈ 23 µM) | MIC (K. pneumoniae A15130): 16 µg/mL (≈ 46.1 µM) | M.I.C. (K. pneumoniae A15130): 32 µg/mL | MIC (Ps. aeruginosa A9843A): > 125 µg/mL
